Tests used:
melatonin ML1a receptor = molecular target: T1, melatonin ML1a receptor (Homo sapiens, UniProt P48039); assay: Melatonergic receptor binding, 2-[125I]-iodomelatonin, ML1a; settings: NIH-3T3 membranes, 0.1 nM 2-[125I]-iodomelatonin, 37° C. 1 hour
T1 construct: expressed in transfected cells; membrane homogenates
Method: (§1) Melatonergic Receptor Binding Activity
(§2) (a) TME=50 mM Tris buffer containing 12.5 mM MgCl2, and 2 mM EDTA, pH 7.4 at 37° C., with concentrated HCl.
(§3) (b) Wash buffer: 20 mM Tris base containing 2 mM MgCl2, pH 7.4 at room temperature.
(§4) (c) 10^−4 M melatonin (10^−5 M final concentration).
(d) 2-[^125I]-iodomelatonin ML1a, 0.1 nM final concentration.
(§5) 2. Membrane Homogenates: The melatonin ML1a and ML1b receptors cDNA were individually subcloned into pcDNA3 and introduced into NIH-3T3 cells using Lipofectamine. Transformed NIH-3T3 cells resistant to geneticin (G-418) were isolated, and single colonies expressing high levels of 2[^125I]-iodomelatonin binding were isolated. Cells are maintained in DMEM supplemented with 10% calf serum and G-418 (0.5 g/liter). Cells are grown to confluency in T-175 flasks, scraped using Hank's balanced salt solution, and frozen at −80° C. For preparing membrane homogenates, pellets are thawed on ice, and re-suspended in TME buffer in the presence of 10 μg/ml aprotinin and leupeptin, and 100 μM phenylmethylsulfonylfluoride. The cells were then homogenized using a dounce homogenizer, and centrifuged. The resulting pellet was re-suspended with dounce homogenizer in TME (supplemented with the above protease inhibitors) and frozen. On the day of assay, a small aliquot was thawed on ice and re-suspended in the ice cold TME (1:50-1:100 v/v) and held on ice until assayed.
(§6) 3. Incubation: 37° C. for 1 hour. Reaction is terminated by filtration. Filters were washed 3 times.
(§7) 4. References: Reppert, S. M. et al., Neuron, 13, p. 1177-1185 (1994); and Reppert, S. M. et al., Proc. Natl. Acad. Sci. USA, 92, p. 8734-8738 (1995).
(§8) The compounds of the present invention have affinity for receptors of the endogenous pineal hormone, melatonin, as determined in receptor binding assays described above in Tables I to III for the ML1a and ML1b (human) receptors. Melatonin is involved in the regulation of a variety of biological rhythms and exerts its biological effects via interaction with specific receptors. There is evidence that administration of melatonin agonists are of clinical utility in the treatment of various conditions regulated by melatonin activity. Such conditions include depression, jet-lag, work-shift syndrome, sleep disorders, glaucoma, some disorders associated with reproduction, cancer benign prostatic hyperplasia, immune disorders, and neuroendocrine disorders.

melatonin ML1b receptor = molecular target: T2, melatonin ML1b receptor (Homo sapiens, UniProt P49286); assay: Melatonergic receptor binding, 2-[125I]-iodomelatonin, ML1b; settings: NIH-3T3 membranes, 0.2 nM 2-[125I]-iodomelatonin, 37° C. 1 hour
T2 construct: expressed in transfected cells; membrane homogenates
T2 sequence (P49286 1-362): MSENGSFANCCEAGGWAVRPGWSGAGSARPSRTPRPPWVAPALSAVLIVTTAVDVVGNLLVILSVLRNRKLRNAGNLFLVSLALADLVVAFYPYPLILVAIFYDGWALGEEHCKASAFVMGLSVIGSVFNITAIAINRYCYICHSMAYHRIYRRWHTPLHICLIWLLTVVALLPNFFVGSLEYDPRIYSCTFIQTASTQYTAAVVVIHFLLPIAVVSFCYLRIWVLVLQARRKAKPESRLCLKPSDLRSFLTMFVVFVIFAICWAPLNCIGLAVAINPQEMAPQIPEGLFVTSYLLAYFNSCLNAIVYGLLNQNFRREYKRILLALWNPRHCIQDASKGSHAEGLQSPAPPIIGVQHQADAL
Method: as §1, §2, §3, §4
(e) 2-[^125I]-iodomelatonin ML1b, 0.2 nM final concentration.
as §5, §6, §7, §8

T1 sequence (P48039 whole entry): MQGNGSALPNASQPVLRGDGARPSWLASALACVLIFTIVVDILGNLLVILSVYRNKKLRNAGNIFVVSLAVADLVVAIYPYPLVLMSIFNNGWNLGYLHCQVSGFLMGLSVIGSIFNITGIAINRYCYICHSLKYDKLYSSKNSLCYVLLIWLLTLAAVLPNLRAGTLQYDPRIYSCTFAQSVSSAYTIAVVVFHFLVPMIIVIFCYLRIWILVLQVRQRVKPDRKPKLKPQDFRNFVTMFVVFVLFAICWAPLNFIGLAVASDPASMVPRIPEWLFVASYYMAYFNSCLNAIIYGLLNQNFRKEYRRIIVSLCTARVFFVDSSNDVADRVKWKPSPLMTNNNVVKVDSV

Row | SMILES | IC50 (melatonin ML1a receptor; Table I) [nM] | IC50 (melatonin ML1b receptor; Table I) [nM] | IC50 (melatonin ML1a receptor; Table II) [nM] | IC50 (melatonin ML1b receptor; Table II) [nM] | also measured
1 | CC(C)c1nc2cccc([C@@H]3C[C@H]3CNC(=O)C3CC3)c2o1 [Example 91, N-({(1R,2R)-2-[2-(Methylethyl)benzoxazol-7-yl]cyclopropyl}methyl)cyclopropylcarboxamide] |  |  |  |  | IC50 (melatonin ML1a receptor; Table III): < 10 nM; IC50 (melatonin ML1b receptor; Table III): < 10 nM
2 | Cc1nc2cccc(CCCNC(=O)C3CC3)c2o1 [Example 4, N-[3-(2-Methyl-7-benzoxazolyl)propyl]cyclopropanecarboxamide] | < 10 | < 10 |  |  | 
3 | CC(=O)NCCCc1cccc2nc(C)oc12 [Example 1, N-[3-(2-Methyl-7-benzoxazolyl)propyl]acetamide] | 10 to 250 | 10 to 250 |  |  | 
4 | CCc1nc2cc(-c3ccc(OC)cc3)cc(CCCNC(C)=O)c2o1 [Example 62, N-{3-[2-Ethyl-5-(4-methoxyphenyl)benzoxazol-7-yl]propyl}acetamide] |  |  | 10 to 250 | 10 to 250 | 
5 | CCNC(=O)NC[C@@H]1C[C@H]1c1cccc2nc(C(C)C)oc12 [Example 93, N-({(1R,2R)-2-[2-(Methylethyl)benzoxazol-7-yl]cyclopropyl}methyl)(ethylamino)carboxamide] |  |  |  |  | IC50 (melatonin ML1a receptor; Table III): 10 to 250 nM; IC50 (melatonin ML1b receptor; Table III): 10 to 250 nM
6 | CCCc1nc2cccc(CCCNC(=O)C(C)C)c2o1 [Example 16, 2-Methyl-N-[3-(2-propylbenzoxazol-7-yl)propyl]propanamide] | 10 to 250 | 10 to 250 |  |  | 
7 | CCc1nc2cc(-c3ccc(F)cc3)cc(CCCNC(=O)c3ccccc3)c2o1 [Example 59, N-{3-[2-Ethyl-5-(4-fluorophenyl)benzoxazol-7-yl]propyl}benzamide] |  |  | > 250 | > 250 | 
8 | CCc1nc2cc(-c3ccc(OC)cc3)cc(CCCNC(=O)c3ccccc3)c2o1 [Example 63, N-{3-[2-Ethyl-5-(4-methoxyphenyl)benzoxazol-7-yl]propyl}benzamide] |  |  | 10 to 250 | > 250 | 
9 | C=Cc1ccc2nc(CC)oc2c1CCCNC(=O)OC(C)(C)C [Example 41, N-t-Butoxycarbonyl 7-(3-aminopropyl)-6-vinyl-2-ethylbenzoxazole] |  |  | > 250 | > 250 | 
10 | CC(C)C(=O)NCCCc1cccc2ncoc12 [Example 33, N-(3-Benzoxazol-7-ylpropyl)-2-methylpropanamide] | 10 to 250 | < 10 |  |  | 
11 | C=Cc1cc(CCCNC(=O)C2CC2)c2oc(CC)nc2c1 [Example 72, Cyclopropyl-N-[3-(2-ethyl-5-vinylbenzoxazol-7-yl)propyl]carboxamide] |  |  | > 250 | > 250 | 
12 | CCc1nc2ccc(-c3ccc(OC)cc3)c(CCCNC(=O)C3CC3)c2o1 [Example 54, Cyclopropyl-N-{3-[2-ethyl-6-(4-methoxyphenyl)benzoxazol-7-yl]propyl}carboxamide] |  |  | > 250 | 10 to 250 | 
13 | CCCc1nc2cccc([C@@H]3C[C@H]3CNC(=O)NCC)c2o1 [Example 92, N-{[(1R,2R)-2-(2-Propylbenzoxazol-7-yl)cyclopropyl]methyl}(ethylamino)carboxamide] |  |  |  |  | IC50 (melatonin ML1a receptor; Table III): < 10 nM; IC50 (melatonin ML1b receptor; Table III): < 10 nM
14 | CCc1nc2ccc(-c3ccccc3)c(CCCNC(=O)c3ccccc3)c2o1 [Example 56, N-[3-(2-Ethyl-6-phenylbenzoxazol-7-yl)propyl]benzamide] |  |  | 10 to 250 | 10 to 250 | 
15 | CCC(=O)NCCCc1cccc2nc(-c3ccccc3)oc12 [Example 20, N-[3-(2-Phenylbenzoxazol-7-yl)propyl]propanamide] | 10 to 250 | 10 to 250 |  |  | 
16 | CC(C)C(=O)NCCCc1cccc2nc(C(C)C)oc12 [Example 37, 2-Methyl-N-{3-[2-(methylethyl)benzoxazol-7-yl]propyl}propanamide] | 10 to 250 | 10 to 250 |  |  | 
17 | CCCc1nc2cccc(CCCNC(C)=O)c2o1 [Example 13, N-[3-(2-Propylbenzoxazol-7-yl)propyl]acetamide] | > 250 | 10 to 250 |  |  | 
18 | CCCC(=O)NCCCc1cccc2nc(C(C)C)oc12 [Example 36, N-{3-[2-(Methylethyl)benzoxazol-7-yl]propyl}butanamide] | 10 to 250 | 10 to 250 |  |  | 
19 | CCNC(=O)NC[C@@H]1C[C@H]1c1cccc2nc(CC)oc12 [Example 81, N-{[(1R,2R)-2-(2-Ethylbenzoxazol-7-yl)cyclopropyl]methyl}(ethylamino)carboxamide] |  |  |  |  | IC50 (melatonin ML1a receptor; Table III): < 10 nM; IC50 (melatonin ML1b receptor; Table III): < 10 nM
20 | CCNC(=O)NCCCc1cccc2nc(CCCCc3ccccc3)oc12 [Example 30, (Ethylamino)-N-{3-[2-(4-phenylbutyl)benzoxazol-7-yl]propyl}carboxamide] | < 10 | 10 to 250 |  |  | 
21 | CCc1nc2ccc(-c3ccc(C(F)(F)F)cc3)c(CCCNC(=O)C3CC3)c2o1 [Example 51, Cyclopropyl-N-(3-{2-ethyl-6-[4-(trifluoromethyl)phenyl]benzoxazol-7-yl}propyl)carboxamide] |  |  | > 250 | 10 to 250 | 
22 | CCNC(=O)NCCCc1cccc2nc(-c3ccccc3)oc12 [Example 24, (Ethylamino)-N-[3-(2-phenylbenzoxazol-7-yl)propyl]carboxamide] | > 250 | 10 to 250 |  |  | 
23 | CCc1nc2ccc(C)c(CCCNC(=O)C3CC3)c2o1 [Example 46, Cyclopropyl-N-[3-(2-ethyl-6-methylbenzoxazol-7-yl)propyl]carboxamide] |  |  | < 10 | < 10 | 
24 | CCc1nc2cc(-c3ccc(F)cc3)cc(CCCNC(=O)C3CC3)c2o1 [Example 60, Cyclopropyl-N-{3-[2-ethyl-5-(4-fluorophenyl)benzoxazol-7-yl]propyl}carboxamide] |  |  | 10 to 250 | 10 to 250 | 
25 | CC(C)C(=O)NCCCc1cccc2nc(-c3ccccc3)oc12 [Example 22, 2-Methyl-N-[3-(2-phenylbenzoxazol-7-yl)propyl]propanamide] | 10 to 250 | 10 to 250 |  |  | 
26 | CCC(=O)NC[C@@H]1C[C@H]1c1cccc2nc(C(C)C)oc12 [Example 85, N-({(1R,2R)-2-[2-(Methylethyl)benzoxazol-7-yl]cyclopropyl}methyl)propanamide] |  |  |  |  | IC50 (melatonin ML1a receptor; Table III): < 10 nM; IC50 (melatonin ML1b receptor; Table III): < 10 nM
27 | CCc1nc2cc(Br)cc(CCCNC(=O)C3CC3)c2o1 [Example 70, N-[3-(5-Bromo-2-ethylbenzoxazol-7-yl)propyl]cyclopropylcarboxamide] |  |  | > 250 | 10 to 250 | 
28 | CCc1nc2cc(Br)cc(CCCNC(=O)OC(C)(C)C)c2o1 [Example 40] |  |  | 10 to 250 | > 250 | 
29 | CCC(=O)NCCCc1cccc2nc(C)oc12 [Example 2, N-[3-(2-Methyl-7-benzoxazolyl)propyl]propanamide] | < 10 | < 10 |  |  | 

Source: patent US6737431B2 (Bristol-Myers Squibb Company, priority 2002, dated 2004)
